The source of these data is ChEMBL document CHEMBL3421548, “PMA-SiO2 catalyzed synthesis of indolo[2,3-c]quinolines as potent anti cancer agents” (Bioorg Med Chem Lett, 2015).

One may read the IC50 as the concentration that inhibits the measured activity by half. Read a low IC50 as greater potency.

Calls of active or inactive are those of the source. The calls are words filed in the database; no cut-off is given here. Bounds are passed on as bounds.

One assay deals with Mycobacterium sp. As to the kind of experiment: Antimycobacterial activity against Mycobacterium sp. It is filed as functional, organism-based.
A further assay has as its system A549. As to the kind of experiment: Cytotoxicity against human A549 cells after 48 hrs by SRB method. The conditions noted are these: A549, 48 h. Type of assay: functional, cell-based.
Assay [1] concerns DU-145. The assay can be described thus: Cytotoxicity against human DU145 cells after 48 hrs by SRB method. Type of assay: functional, cell-based. The settings on record: DU-145, 48 h.
The test system of the next assay is MCF7. The assay can be described thus: Cytotoxicity against human MCF7 cells after 48 hrs by SRB method. It is filed as functional, cell-based. The settings on record: MCF7, 48 h.
A short description of assay [2]: Cytotoxicity against mouse NIH/3T3 cells after 48 hrs by SRB method. The conditions noted are these: NIH3T3, 48 h. Type of assay: cell-based. A general note: In SRB staining, fixed cells bind dye roughly in proportion to their protein.
A further assay relates to HeLa. As to the kind of experiment: Cytotoxicity against human HeLa cells after 48 hrs by SRB method. It is filed as functional, cell-based.
Assay [3] deals with DU-145. As to the kind of experiment: Cell cycle arrest in human DU145 cells assessed as accumulation at G1 phase at 50 uM after 24 hrs by RNase/propidium iodide staining-based flow cytometry (reference value: 82.57%). It is filed as functional. (In general: A flow cytometer gives signals particle by particle.)
Assay [4] concerns DU-145. As to the kind of experiment: Effect on NF-kappaB total expression in human DU145 cells at 5 to 25 uM after 24 hrs by Western blotting analysis. It is filed as functional, cell-based. (In general: A western blot detects proteins with antibodies after separation by electrophoresis.)
Assay [5] concerns DU-145. As to the kind of experiment: Cell cycle arrest in human DU145 cells assessed as accumulation at G2/M phase at 5 uM after 24 hrs by RNase/propidium iodide staining-based flow cytometry (reference value: 13.7%). It is filed as functional.
In assay [6] the test system is DU-145. The assay can be described thus: Cell cycle arrest in human DU145 cells assessed as accumulation at G1 phase at 15 uM after 24 hrs by RNase/propidium iodide staining-based flow cytometry (reference value: 82.57%). It is filed as functional.
The test system of assay [7] is DU-145. The assay can be described thus: Cell cycle arrest in human DU145 cells assessed as accumulation at G1 phase at 10 uM after 24 hrs by RNase/propidium iodide staining-based flow cytometry (reference value: 82.57%). Type of assay: functional.
The test system of assay [8] is DU-145. As to the kind of experiment: Cell cycle arrest in human DU145 cells assessed as accumulation at G2/M phase at 50 uM after 24 hrs by RNase/propidium iodide staining-based flow cytometry (reference value: 13.7%). It is filed as functional.
In assay [9] the test system is DU-145. The assay can be described thus: Cell cycle arrest in human DU145 cells assessed as accumulation at G1 phase at 25 uM after 24 hrs by RNase/propidium iodide staining-based flow cytometry (reference value: 82.57%). It is filed as functional.
The test system of assay [10] is DU-145. The assay can be described thus: Cell cycle arrest in human DU145 cells assessed as accumulation at S phase at 10 uM after 24 hrs by RNase/propidium iodide staining-based flow cytometry (reference value: 4.24%). Type of assay: functional.
Assay [11] has as its system DU-145. The assay can be described thus: Reduction in NF-kappaB p65 phosphorylation in human DU145 cells at 5 to 25 uM after 24 hrs by Western blotting analysis. Type of assay: functional, cell-based.
For assay [12], the system named is DU-145. The assay can be described thus: Cell cycle arrest in human DU145 cells assessed as accumulation at G2/M phase at 15 uM after 24 hrs by RNase/propidium iodide staining-based flow cytometry (reference value: 13.7%). It is filed as functional.
For assay [13], the system named is DU-145. The assay can be described thus: Cell cycle arrest in human DU145 cells assessed as accumulation at G2/M phase at 25 uM after 24 hrs by RNase/propidium iodide staining-based flow cytometry (reference value: 13.7%). It is filed as functional.
The subject of assay [14] is DU-145. The assay can be described thus: Cell cycle arrest in human DU145 cells assessed as accumulation at G1 phase at 5 uM after 24 hrs by RNase/propidium iodide staining-based flow cytometry (reference value: 82.57%). It is filed as functional.
For assay [15], the system named is DU-145. As to the kind of experiment: Cell cycle arrest in human DU145 cells assessed as accumulation at S phase at 50 uM after 24 hrs by RNase/propidium iodide staining-based flow cytometry (reference value: 4.24%). It is filed as functional.
Assay [16] concerns DU-145. As to the kind of experiment: Cell cycle arrest in human DU145 cells assessed as accumulation at G2/M phase at 10 uM after 24 hrs by RNase/propidium iodide staining-based flow cytometry (reference value: 13.7%). It is filed as functional.
Assay [17] concerns DU-145. As to the kind of experiment: Cell cycle arrest in human DU145 cells assessed as accumulation at S phase at 5 uM after 24 hrs by RNase/propidium iodide staining-based flow cytometry (reference value: 4.24%). Type of assay: functional.
Assay [18] deals with DU-145. As to the kind of experiment: Cell cycle arrest in human DU145 cells assessed as accumulation at S phase at 25 uM after 24 hrs by RNase/propidium iodide staining-based flow cytometry (reference value: 4.24%). It is filed as functional.
The subject of assay [19] is DU-145. As to the kind of experiment: Cell cycle arrest in human DU145 cells assessed as accumulation at G2/M phase after 24 hrs by RNase/propidium iodide staining-based flow cytometry. It is filed as functional.
Assay [20] deals with DU-145. The assay can be described thus: Cell cycle arrest in human DU145 cells assessed as accumulation at S phase at 15 uM after 24 hrs by RNase/propidium iodide staining-based flow cytometry (reference value: 4.24%). It is filed as functional.
Assay [21] has as its system DU-145. As to the kind of experiment: Cell cycle arrest in human DU145 cells assessed as accumulation at G1 phase after 24 hrs by RNase/propidium iodide staining-based flow cytometry. It is filed as functional.

With `Fc1cccc(Cl)c1-c1nc2ccccc2c2c1[nH]c1ccccc12`, the result with Mycobacterium sp. was inactive. For the same compound, the half-inhibitory concentration (IC50) with A549 came out at 6.35 µM; in the assay with DU-145 [1] it was 14 µM; in the assay with MCF7, 13.3 µM; in [2], 71.1 µM; in the assay on HeLa, 22.9 µM.

Consider `Cc1cn([C@H]2C[C@H](N=[N+]=[N-])[C@@H](c3nc4ccccc4c4c3[nH]c3ccccc34)O2)c(=O)[nH]c1=O`, for which the Activity with DU-145 [3] turned out to be 52.07%; with DU-145 [5], 15.78%; in the assay with DU-145 [6], 74.76%; in the assay with DU-145 [7], 77.6%; with DU-145 [8] it was 39.57%; in the assay on DU-145 [9], 62.12%. Moreover, the Activity was determined as 5% with DU-145 [10]; 19.79% with DU-145 [12]; 28.22% in the assay with DU-145 [13]; 80.75% in the assay with DU-145 [14]; 9.74% in the assay with DU-145 [15]; 18.23% in the assay on DU-145 [16]. The Activity in the assay on DU-145 [17] was 4.16%; in the assay with DU-145 [18], 11.78%; in the assay with DU-145 [19], “Dose-dependent effect”; in the assay on DU-145 [20] it was 6.53%. The result in the assay on Mycobacterium sp. and with DU-145 [4] was inactive. Besides, the IC50 was determined as 6.2 µM in the assay with A549; 10.1 µM in the assay on DU-145 [1]; 4.78 µM in the assay with MCF7; 63.3 µM in [2]; 17.3 µM in the assay on HeLa. Also, in the assay with DU-145 [11], the result was Active.

On to `Brc1ccc(-c2nc3ccccc3c3c2[nH]c2ccccc23)cc1`, for which, in the assay on Mycobacterium sp., the result was inactive. Moreover, the IC50 is 17.1 µM with A549; 18.6 µM in the assay on DU-145 [1]; 23.4 µM with MCF7; > 200 µM in [2]; 49.3 µM in the assay on HeLa.

On to `CC(C)c1nc2ccccc2c2c1[nH]c1ccccc12`, for which, in the assay on Mycobacterium sp., the result was inactive. Also, the 50% inhibitory concentration (IC50) was 18.1 µM in the assay with A549; 43.9 µM in the assay on DU-145 [1]; 20.2 µM in the assay on MCF7; > 200 µM in assay [2]; 18.2 µM in the assay with HeLa.

`C=CCOc1ccc(-c2nc3ccccc3c3c2[nH]c2ccccc23)cc1`: in the assay with Mycobacterium sp., the result was inactive. The half-maximal inhibitory concentration (IC50) in the assay with A549 is 6.22 µM; with DU-145 [1], 23.6 µM; with MCF7 it was 11.9 µM; in [2], > 200 µM; in the assay with HeLa, 27.5 µM.

On to `FC(F)(F)c1ccc(-c2nc3ccccc3c3c2[nH]c2ccccc23)cc1`, for which, in the assay with Mycobacterium sp., the outcome was inactive. Also, the half-maximal inhibitory concentration (IC50) in the assay on A549 stood at 3.71 µM; with DU-145 [1] it was 4.19 µM; in the assay on MCF7, 5.07 µM; in [2], 110 µM; in the assay on HeLa, 20.8 µM.

In the case of `COc1cccc2c1C(=O)c1c(O)c3c(c(O)c1C2=O)C[C@@](O)(C(=O)CO)C[C@@H]3O[C@H]1C[C@H](N)[C@H](O)[C@H](C)O1` [DOXORUBICIN], the IC50 in the assay on A549 is 1.11 µM; with DU-145 [1] it was 3.11 µM; in the assay with MCF7, 2.31 µM; in assay [2], 5.91 µM; in the assay on HeLa, 1.43 µM.

As for `COc1ccc(-c2nc3ccccc3c3c2[nH]c2ccccc23)cc1`, the outcome in the assay on Mycobacterium sp. was inactive. For the same compound, the concentration for half-maximal inhibition (IC50) with A549 came to 23.8 µM; in the assay with DU-145 [1] it was 62 µM; with MCF7, 27.8 µM; in assay [2], 114 µM; with HeLa it was 36.1 µM.

As to `Cc1cn([C@H]2C[C@H](N=[N+]=[N-])[C@@H](CO)O2)c(=O)[nH]c1=O` [ZIDOVUDINE], the outcome in the assay with Mycobacterium sp. was inactive. In addition, the half-maximal inhibitory concentration (IC50) is 16.2 µM in the assay with A549; 34.5 µM in the assay with DU-145 [1]; 35 µM in the assay with MCF7; > 200 µM in [2]; 65.5 µM in the assay on HeLa.

With `CCc1ccc(-c2nc3ccccc3c3c2[nH]c2ccccc23)cc1`, the result with Mycobacterium sp. was inactive. Further, the IC50 is 9.33 µM with A549; 46.2 µM in the assay with DU-145 [1]; 9.84 µM in the assay with MCF7; 200 µM in [2]; 19 µM in the assay with HeLa.

As for `c1ccc(COc2ccc(-c3nc4ccccc4c4c3[nH]c3ccccc34)cc2)cc1`, in the assay with Mycobacterium sp., the outcome was inactive. For the same compound, the 50% inhibitory concentration (IC50) in the assay with A549 was 29.9 µM; in the assay on DU-145 [1], 70 µM; with MCF7, 58.9 µM; in [2] it was > 200 µM; in the assay on HeLa it was 67.9 µM.

As to `c1csc(-c2ccc(-c3nc4ccccc4c4c3[nH]c3ccccc34)s2)c1`, the Activity with DU-145 [3] is 97.58%; with DU-145 [5] it was 12.38%; in the assay with DU-145 [6] it was 87.81%; with DU-145 [7], 86.17%; in the assay with DU-145 [8], 1.89%; in the assay on DU-145 [9], 89.28%. The Activity entry in the assay with DU-145 [21] is “Dose-dependent effect”; in the assay with DU-145 [10] it was 3.79%; in the assay on DU-145 [12] it was 9.6%; with DU-145 [13] it was 7.89%; in the assay with DU-145 [14], 84.55%; with DU-145 [15] it was 0.63%. Moreover, the Activity is 10.74% in the assay with DU-145 [16], 3.61% in the assay on DU-145 [17], 2.83% in the assay on DU-145 [18] and 2.97% in the assay with DU-145 [20]. Further, the outcome in the assay on Mycobacterium sp. and in the assay on DU-145 [4] was inactive. The half-maximal inhibitory concentration (IC50) in the assay on A549 stood at 3.03 µM; with DU-145 [1] it was 0.52 µM; with MCF7, 10.7 µM; in assay [2], 89.5 µM; in the assay on HeLa it was 6.59 µM. In the assay with DU-145 [11], the result was Active.

As to `c1ccc2nc(-c3nc4ccccc4c4c3[nH]c3ccccc34)ccc2c1`, the outcome with Mycobacterium sp. was inactive. For the same compound, the half-inhibitory concentration (IC50) with A549 is 68.4 µM; in the assay with DU-145 [1], 41.5 µM; with MCF7 it was 52.6 µM; in assay [2], > 200 µM; in the assay with HeLa, 69.9 µM.

In the case of `c1ccc(Oc2ccc(-c3nc4ccccc4c4c3[nH]c3ccccc34)cc2)cc1`, the outcome with Mycobacterium sp. was inactive. For the same compound, the IC50 in the assay on A549 is 13.2 µM; with DU-145 [1], 54 µM; with MCF7 it was 49.6 µM; in [2], > 200 µM; with HeLa, 42.8 µM.
